Data from patent publication US20250289793A1, “MACROCYCLIC INHIBITORS OF ATP CITRATE LYASE” (Esperion Therapeutics, Inc., priority 2022, published 2025).
Like-named read-outs stand apart in the source and are kept apart here.

Tests used:
[1] = biological target: Recombinant human ACLY full length protein (Homo sapiens (Human), UniProt P53396); test: hACLY ADP-Glo activity assay; assay type: biochemical; conditions: 0.5 nM ACLY; 15 μM sodium citrate, 1 μM coenzyme A, 80 μM ATP; ADP formed, luminescence; read-out: ADP-Glo IC50 GMean
Recombinant human ACLY full length protein, sequence (P53396 whole entry): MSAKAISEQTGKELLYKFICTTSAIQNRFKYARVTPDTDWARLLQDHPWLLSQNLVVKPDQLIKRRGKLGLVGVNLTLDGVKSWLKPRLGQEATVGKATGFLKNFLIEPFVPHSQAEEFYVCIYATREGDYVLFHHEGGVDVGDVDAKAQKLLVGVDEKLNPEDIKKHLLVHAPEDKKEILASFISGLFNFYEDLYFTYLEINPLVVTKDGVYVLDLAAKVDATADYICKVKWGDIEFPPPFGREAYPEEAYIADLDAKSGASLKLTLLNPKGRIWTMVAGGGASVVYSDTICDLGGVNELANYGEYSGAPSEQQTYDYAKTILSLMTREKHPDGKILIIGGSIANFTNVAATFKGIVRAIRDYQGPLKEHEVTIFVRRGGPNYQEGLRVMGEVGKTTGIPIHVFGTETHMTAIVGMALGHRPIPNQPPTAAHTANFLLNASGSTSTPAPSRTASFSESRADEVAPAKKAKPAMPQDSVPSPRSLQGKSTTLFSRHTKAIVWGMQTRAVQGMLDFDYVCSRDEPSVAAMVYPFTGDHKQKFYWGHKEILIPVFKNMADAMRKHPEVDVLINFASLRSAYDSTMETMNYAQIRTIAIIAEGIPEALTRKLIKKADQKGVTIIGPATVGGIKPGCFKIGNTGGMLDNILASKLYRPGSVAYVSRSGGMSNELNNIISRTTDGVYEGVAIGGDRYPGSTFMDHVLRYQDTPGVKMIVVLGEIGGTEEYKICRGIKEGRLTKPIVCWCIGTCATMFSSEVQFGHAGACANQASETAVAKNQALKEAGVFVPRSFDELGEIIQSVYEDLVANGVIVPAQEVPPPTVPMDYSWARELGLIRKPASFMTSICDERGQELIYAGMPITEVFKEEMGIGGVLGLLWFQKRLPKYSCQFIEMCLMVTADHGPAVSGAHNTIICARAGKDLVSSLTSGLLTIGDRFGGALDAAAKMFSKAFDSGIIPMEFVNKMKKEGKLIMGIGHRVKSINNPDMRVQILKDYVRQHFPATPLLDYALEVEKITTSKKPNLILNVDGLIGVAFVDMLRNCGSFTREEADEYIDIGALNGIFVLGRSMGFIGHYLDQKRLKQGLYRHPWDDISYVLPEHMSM
Description: Compounds of the disclosure were evaluated for their efficacy in inhibiting hACLY using an ADP-Glo™ assays that measure ADP formed from the enzymatic activity of hACLY.
Test compounds were 3-fold serially diluted in DMSO over 11-point concentration range and dispensed onto a 384-well plate. Recombinant human ACLY full length protein was purified. Concentrations of ACLY protein, sodium citrate, coenzyme A, and ATP in the reaction were optimized for standardized homogenous enzyme assay using ADP-Glo™ Kinase (Promega Inc.). The assay measured ADP formed from the enzymatic reaction.
The reaction buffer consisted of the assay buffer (50 mM HEPES pH 8.0, 10 mM MgCl2, 4 mM 1,4-Dithiothreitol, 0.01% Brij® 35).
ACLY protein (0.5 nM) was added to the prepared reaction buffer, and the mixture was dispensed into the assay plate and incubated for 30 minutes at room temperature. Next, 15 μM sodium citrate, 1 μM coenzyme A, and 80 μM ATP were added into the assay plate and incubated for 60 minutes at room temperature. The final reaction volume for each well was 5 μL.
5 μL of ADP-Glo™ reagent was added, and the mixture was incubated for 40 minutes at room temperature. 10 μl ADP-Glo™ detection reagent was added, and the mixture was incubated for 30 minutes at room temperature. Luminescence was determined using EnVision microplate reader with ultra-luminescence module (Perkin Elmer Inc). Concentration-response curve-fitting and IC50 determination was performed using Xlfit Software (version 5.5.0) with a four-parameter logistic regression fit model.

HepG2 cells = test: Fatty acid synthesis (FAS) assay in HepG2 cells; assay type: cell-based; conditions: Homo sapiens, 1.5 h, 14C-citrate 50 μM, 90 min, read-out: FAS IC50 GMean
Description: HepG2 cells were seeded into white clear-bottom 96-well plates (50,000/well) coated with collagen and incubated at 37° C. for 16-24 hours. Thereafter the plates were washed once with 100 μL PBS (+CaCl2+MgCl2) and 50 μL assay medium ([…] containing 11 mM glucose, 10 mM HEPES and 1 nM Insulin) per well was added. Test substances in assay medium were added (10 μL, 0.5% DMSO) and incubated for 20 min at 37° C. After that 10 μL assay medium containing ^14C-citrate (final concentration 50 μM) and PrestoBlue reagent (lx final concentration; ThermoFisher) were added and incubated for 90 min (37° C., 5% CO2). Cell viability was measured (Multiskan FC, microplate reader, absorbance 570 nm). Medium was removed by inverting the plate and cells were washed once with 100 μL ice-cold PBS. Cells were lysed with 50 μL lysis buffer (0.1 N NaOH, 0.1% Triton X-100) and plate was sealed with Tape Pads and vortexed. For the saponification reaction plates were incubated for 16-24 hours at 80° C. Seals were removed and 200 μL 0.1 N HCl was added for neutralisation of the pH. 150 μL from each well was transferred into the corresponding wells of a 96-well Flash plate (Perkin Elmer) and sealed with TopSeal A (Perkin Elmer). Plates were incubated for 4 h at 70° C., and for 1 h at room temperature in the dark. Signal of ^14C radioactivity was measured (TopCount). As a positive control 5 mM unlabelled citrate or C75 (Sigma, C5490) was applied.

ACLY [2] = biological target: T1, ACLY (Homo sapiens (Human), UniProt P53396); test: Human ACLY (hACLY) RF/MS activity assay; assay type: biochemical; conditions: 1 nM hACLY; 30 min pre-incubation; 15 μM Coenzyme A, 50 μM ATP, 50 μM citrate; CoA to Acetyl-CoA by RF/MS; read-out: RFMS IC50 GMean
T1 sequence (P53396 whole entry): as above
Outline: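 Reaction buffer was 50 mM Hepes pH 8.0, 10 mM MgCl2, 0.003% BSA, 0.01% Brij35, 50 mM NaCl, 4 mM DTT, with 1 nM hACLY and 1% DMSO; compounds (two-fold series from 10 μM) were pre-incubated 30 min at RT. Reaction with 15 μM CoA, 50 μM ATP, 50 μM citrate ran 30 min, formic-acid quenched; CoA and acetyl-CoA quantified by RF/MS as ratio.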

ACLY [3] = biological target: T1, ACLY; test: InCell Pulse assay (permeate HEK293 cells, bind to and stabilize ACLY); assay type: cell-based; conditions: HEK293 cells transfected with pICP-ACLY(FL)-ePL; 1 hour at 37° C., 55° C. heat pulse 10 minutes; read-out: InCell Pulse IC50 GMean
Outline: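 HEK293 cells transiently expressing full-length ACLY-ePL were exposed in OptiMEM to 11-point, 3-fold compound dilutions for 1 h at 37 °C, heat-pulsed 10 min at 55 °C, then lysed for enzyme-fragment complementation luminescence. Four-parameter fit, normalised to 0.5% DMSO and 1 μM NDI-094311.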

[4] = 15-membered ring
[5] = from COc1c(Cl)cc(C(=O)O)cc1S(=O)(=O)Cc1cc(-c2ccccc2OCCN)c(F)cc1F; amide bond; 15-membered ring; T3P/DIPEA; DMF; 48.0 mM; 21.0 h

SMILES | IC50 [1] [nM] | IC50 (HepG2 cells) [nM] | IC50 (ACLY [2]) [nM] | IC50 (ACLY [3]) [nM] | ring closure, yield after HPLC ([4]; from COc1c(Cl)cc(C(=O)O)cc1S(=O)(=O)Nc1cc(-c2ccccc2OCCO)c(F)cc1F, ester bond, 2,4,6-trichlorobenzoyl chloride/DIEA/DMAP, THF, 13.1 mM, 65.0 °C, 4.0 h) [%] | ring closure, crude yield [5] [%] | ring closure, yield after HPLC ([4]; from 3-[[5-[2-(2-aminoethoxy)phenyl]-2,4-difluoro-phenyl]sulfamoyl]-5-chloro-4-(difluoromethoxy)benzoic acid·HCl, amide bond, T3P/DIPEA, DMF, 18.1 mM) [%]
CN1CCOc2ccccc2-c2cc(c(F)cc2F)NS(=O)(=O)c2cc(cc(Cl)c2O)C1=O [Compound 4, 15-chloro-21,23-difluoro-16-hydroxy-11-methyl-8-oxa-18lambda6-thia-11,19-diazatetracyclo[18.3.1.1^13,17.0^2,7]pentacosa-1(24),2,4,6,13,15,17(25),20,22-nonaene-12,18,18-trione] | 1 to 10 | 10000 to 50000 | 20 to 100 | 1000 to 50000 |  |  | 
CN1c2cc(c(F)cc2F)-c2ccccc2OCCNC(=O)c2cc(Cl)c(O)c(c2)S1(=O)=O [Compound 9, 15-chloro-21,23-difluoro-16-hydroxy-19-methyl-8-oxa-18lambda6-thia-11,19-diazatetracyclo[18.3.1.1^13,17.0^2,7]pentacosa-1(24),2,4,6,13,15,17(25),20,22-nonaene-12,18,18-trione] | ≥ 1000 | ≥ 50000 | ≥ 10000 | ≥ 50000 |  |  | 
O=C1OCCOc2cc(Cl)ccc2-c2cc(c(F)cc2F)NS(=O)(=O)c2cc1cc(Cl)c2O [Compound 18, 5,15-dichloro-21,23-difluoro-16-hydroxy-8,11-dioxa-18lambda6-thia-19-azatetracyclo[18.3.1.1^13,17.0^2,7]pentacosa-1(24),2,4,6,13,15,17(25),20,22-nonaene-12,18,18-trione] | 1 to 10 | 2000 to 10000 | 20 to 100 | 300 to 1000 |  |  | 
COc1c(Cl)cc2cc1S(=O)(=O)Nc1cc(c(F)cc1F)-c1ccccc1OCCOC2=O |  |  |  |  | 18 |  | 
COc1c(Cl)cc2cc1S(=O)(=O)Cc1cc(c(F)cc1F)-c1ccccc1OCCNC2=O |  |  |  |  |  | 81 | 
O=C1NCCCOc2ccccc2-c2cc(c(F)cc2F)NS(=O)(=O)c2cc1cc(Cl)c2O [Compound 6, 16-chloro-22,24-difluoro-17-hydroxy-8-oxa-19lambda6-thia-12,20-diazatetracyclo[19.3.1.1^14,18.0^2,7]hexacosa-1(25),2,4,6,14,16,18(26),21,23-nonaene-13,19,19-trione] | 10 to 1000 | 10000 to 50000 | 100 to 10000 | ≥ 50000 |  |  | 
O=C1OCCCc2ccccc2-c2cc(c(F)cc2F)NS(=O)(=O)c2cc1cc(Cl)c2O [Compound 16, 15-chloro-21,23-difluoro-16-hydroxy-11-oxa-18lambda6-thia-19-azatetracyclo[18.3.1.1^13,17.0^2,7]pentacosa-1(24),2,4,6,13,15,17(25),20,22-nonaene-12,18,18-trione] | < 1 | < 2000 | 20 to 100 | < 300 |  |  | 
CN1CCCc2ccccc2-c2cc(c(F)cc2F)NS(=O)(=O)c2cc(cc(Cl)c2O)C1=O [Compound 10, 15-chloro-21,23-difluoro-16-hydroxy-11-methyl-18lambda6-thia-11,19-diazatetracyclo[18.3.1.1^13,17.0^2,7]pentacosa-1(24),2,4,6,13,15,17(25),20,22-nonaene-12,18,18-trione] | 1 to 10 | 2000 to 10000 | 20 to 100 | < 300 |  |  | 
O=C1NCCCc2ccccc2-c2cc(c(F)cc2F)NS(=O)(=O)c2cc1cc(Cl)c2O [Compound 8, 15-chloro-21,23-difluoro-16-hydroxy-18lambda6-thia-11,19-diazatetracyclo[18.3.1.1^13,17.0^2,7]pentacosa-1(24),2,4,6,13,15,17(25),20,22-nonaene-12,18,18-trione] | 1 to 10 | 10000 to 50000 | 20 to 100 | 300 to 1000 |  |  | 
O=C1NCCOc2ccccc2-c2cc(c(F)cc2F)NS(=O)(=O)c2cc1cc(Cl)c2O [Compound 2, 15-chloro-21,23-difluoro-16-hydroxy-8-oxa-18lambda6-thia-11,19-diazatetracyclo[18.3.1.1^13,17.0^2,7]pentacosa-1(24),2,4,6,13,15,17(25),20,22-nonaene-12,18,18-trione] | 1 to 10 | ≥ 50000 | 20 to 100 | 1000 to 50000 |  |  | 
O=C1NCCOc2ccccc2-c2cc(c(F)cc2F)NS(=O)(=O)c2cc1cc(Cl)c2OC(F)F [Compound 15, 15-chloro-16-(difluoromethoxy)-21,23-difluoro-8-oxa-18lambda6-thia-11,19-diazatetracyclo[18.3.1.1^13,17.0^2,7]pentacosa-1(24),2,4,6,13,15,17(25),20,22-nonaene-12,18,18-trione] | ≥ 1000 | 2000 to 10000 | ≥ 10000 | ≥ 50000 |  |  | 48
C[C@H]1COc2ccccc2-c2cc(c(F)cc2F)NS(=O)(=O)c2cc(cc(Cl)c2O)C(=O)N1 [Compound 17, (10S)-15-chloro-21,23-difluoro-16-hydroxy-10-methyl-8-oxa-18lambda6-thia-11,19-diazatetracyclo[18.3.1.1^13,17.0^2,7]pentacosa-1(24),2,4,6,13,15,17(25),20,22-nonaene-12,18,18-trione] | 10 to 1000 | ≥ 50000 | 100 to 10000 | ≥ 50000 |  |  | 
